According to US20230286973A1, “PROTEIN SECRETION INHIBITORS” (KEZAR LIFE SCIENCES, priority 2020, published 2023):

Columns and labels:
[1] = system: HER3-ss+4aa/Gaussia Luciferase; assay: Dox-Induced Her3-ss-Gluc Assay; format: cell-based; details: 24 hr Dox induction; 293FRT/TO cells; mean; read-out: 24 hr Dox Inducible Her3(ss + 4)Gluc 293FRT/TO: Mean IC50
In short: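 Cells were seeded a day ahead, then given compound diluted in DMSO/media with doxycycline to induce expression of the HER3 signal sequence (+4 aa)–Gaussia luciferase fusion. Incubation was at 37° C., 5% CO2, in a stable Flp-In 293 T-REx line.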

[2] = system: PD1-ss+10aa/Gaussia Luciferase; assay: Dox-Induced PD1-ss-Gluc Assay; format: cell-based; details: 24 hr Dox induction; 293FRT/TO cells; mean; read-out: 24 hr Dox Inducible PD1ssGluc 293FRT/TO: Mean IC50
In short: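 Stable Flp-In 293 T-REx cells carried a doxycycline-inducible construct of Gaussia luciferase fused to the PD1 signal sequence plus 10 amino acids. Cells were plated the day before, then treated with compound dilutions in DMSO/media containing doxycycline at 37 °C, 5% CO2.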

[3] = Liver Microsome Stability Assay (monkey); details: monkey liver microsomes, with NADPH, 1.0 uM compound
Protocol: (§1) Stability of a compound was assessed in the presence of liver microsomes from various sources—mouse, rat, monkey and human liver microsomes. 1.0 uM compound, 0.4% DMSO in 0.1 M Potassium Phosphate with 1.0 mg/mL liver microsomes, were incubated at 37° C. with or without 1 mM NADPH. The samples were quenched at 0, and 30 minutes.

[4] = system: IL-2-FL/Gaussia Luciferase; assay: Dox Induced IL2-FL-Gluc Assay; format: cell-based; details: for IC50: 24 hr Dox induction, 293FRT/TO cells, mean, read-out: 24 hr Dox Inducible IL2FLGluc 293FRT/TO: Mean IC50; for 24 hr Dox Inducible IL2FLGluc 293FRT/TO: IL2/PD1: ratio of IL2FLGluc IC50 to PD1ssGluc IC50, '<=>' given where both are I.A.
In short: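 Cells are plated one day ahead, then receive compound dilutions in DMSO/media with doxycycline and incubate at 37° C, 5% CO2. They are Flp-In 293 T-REx cells expressing a full-length IL-2 (amino acids 1-153)–Gaussia luciferase fusion under T-REx control.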

[5] = system: TNFα-FL/Gaussia Luciferase; assay: Dox Induced TNFα-FL-Gluc Assay; format: cell-based; details: for IC50: 24 hr Dox induction, 293FRT/TO cells, mean, read-out: 24 hr Dox Inducible TNFaFLGluc 293FRT/TO: Mean IC50; for 24 hr Dox Inducible TNFaFLGluc 293FRT/TO: TNF/PD1: ratio of TNFaFLGluc IC50 to PD1ssGluc IC50, '<=>' given where both are I.A.
In short: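 Stereoisomer mixtures were tested where stereochemistry is not drawn. Induction used doxycycline added together with compound dilutions in DMSO/media to Flp-In 293 T-REx cells carrying a T-REx-regulated TNFα (aa 1-233)-Gaussia luciferase construct, then incubated at 37 °C, 5% CO2.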

[6] = Liver Microsome Stability Assay (human); details: human liver microsomes, with NADPH, 1.0 uM compound
Protocol: as §1

[7] = system: multiple myeloma cell line U266B1; assay: U266 Cell Viability Assay; format: cell-based, human; details: Homo sapiens, U-266, 48 h, U266B1 cells, Celltiter-Glo
In short: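 Steps: culture in RPMI 1640 plus 10% FBS and 2 mM glutamine; plate and add compound dilutions; incubate 48 hours at 37° C., 5% CO2; add CellTiter-Glo and quantify luciferase signal.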

[8] = system: multiple myeloma cell line NCI-H929; assay: H929 Cell Viability Assay; format: cell-based, human; details: Homo sapiens, NCI-H929, 48 h, NCI-H929 cells, Celltiter-Glo
In short: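 Luminescent ATP detection (CellTiter-Glo) after 48 hours of compound exposure measures viability. Cells were plated in RPMI 1640 containing 10% fetal bovine serum and kept at 37° C under 5% CO2.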

[9] = Liver Microsome Stability Assay (rat); details: rat liver microsomes, with NADPH, 1.0 uM compound
Protocol: as §1

[10] = Liver Microsome Stability Assay (mouse); details: mouse liver microsomes, with NADPH, 1.0 uM compound
Protocol: as §1

Compound | IC50 [1] [µM] | IC50 [2] [µM] | Liver Microsome Stability (Multiple Species): Monkey - % Remaining after 30 min w/NADPH [3] [%] | IC50 [4] [µM] | 24 hr Dox Inducible IL2FLGluc 293FRT/TO: IL2/PD1 [4] | IC50 [5] [µM] | 24 hr Dox Inducible TNFaFLGluc 293FRT/TO: TNF/PD1 [5] | Liver Microsome Stability (Multiple Species): Human - % Remaining after 30 min w/NADPH [6] [%] | EC50 [7] [µM] | EC50 [8] [µM] | Liver Microsome Stability (Multiple Species): Rat - % Remaining after 30 min w/NADPH [9] [%] | Liver Microsome Stability (Multiple Species): Mouse - % Remaining after 30 min w/NADPH [10] [%]
C/C(=C\c1ccc(OC(F)(F)F)cn1)c1csc(NC(=O)c2cccn2Cc2ccncc2)n1 [Compound E2, (E)-1-(pyridin-4-ylmethyl)-N-(4-(1-(5-(trifluoromethoxy)pyridin-2-yl)prop-1-en-2-yl)thiazol-2-yl)-1H-pyrrole-2-carboxamide] | 0.409 | 0.0234 | 13.5 | 0.53 | 23 | 4.85 | 208 | 17.5 | > 25 | 7.34 | 35.4 | 28.6
O=C(Nc1nc(C#Cc2ccccn2)cs1)c1cccn1Cc1ccncc1 [Compound E3, N-(4-(pyridin-2-ylethynyl)thiazol-2-yl)-1-(pyridin-4-ylmethyl)-1H-pyrrole-2-carboxamide] | 7.18 | 0.798 | 0.6 | 13.1 | 16 | > 25 | >31.3 | 0.35 | > 25 | > 25 | 0.35 | 2.41
Cc1nc(CCc2csc(NC(=O)c3cccn3Cc3ccncc3)n2)co1 [Compound E4] | 5.08 | 0.439 | 0.14 | 5.2 | 12 | > 25 | >57.0 | 0.12 | > 25 | > 25 | 0.19 | 0.27
C/C(=C\c1csc(NC(=O)c2cccn2Cc2ccncc2)n1)c1ccc(OC(F)(F)F)cn1 [Compound E5, (E)-1-(pyridin-4-ylmethyl)-N-(4-(2-(5-(trifluoromethoxy)pyridin-2-yl)prop-1-en-1-yl)thiazol-2-yl)-1H-pyrrole-2-carboxamide] | 1.06 | 0.125 | 2.47 | 1.23 | 9.8 | > 25 | >199 | 5.77 | 19.6 | 8.09 | 46.1 | 16.7
O=C(Nc1nc(CCC2CCCCO2)cs1)c1cccn1Cc1ccncc1 (stereo not drawn) [Compound E6, 1-(pyridin-4-ylmethyl)-N-(4-(2-(tetrahydro-2H-pyran-2-yl)ethyl)thiazol-2-yl)-1H-pyrrole-2-carboxamide] | 1.28 | 0.208 | 0.57 | 1.78 | 8.6 | 6.04 | 29.1 | 0.67 | > 25 | 24.2 | 0.75 | 1.82
O=C(Nc1nc(CCc2ccc(OC(F)(F)F)cn2)cs1)c1cccn1Cc1ccncc1 [Compound E7, 1-(pyridin-4-ylmethyl)-N-(4-(2-(5-(trifluoromethoxy)pyridin-2-yl)ethyl)thiazol-2-yl)-1H-pyrrole-2-carboxamide] | 0.947 | 0.158 | 0.23 | 1.19 | 7.5 | 2.76 | 17.4 | 0.1 | > 25 | > 25 | 0.28 | 0.38
O=C(Nc1nc(CCc2ccccn2)cs1)c1cccn1Cc1ccncc1 [Compound E8, N-(4-(2-(pyridin-2-yl)ethyl)thiazol-2-yl)-1-(pyridin-4-ylmethyl)-1H-pyrrole-2-carboxamide] | 4.96 | 0.695 | 0.02 | 5.05 | 7.3 | > 25 | >35.9 | 0.01 | > 25 | > 25 | 2.86 | 0.6
O=C(Nc1nc(CC2CCCCO2)cs1)c1cccn1Cc1ccncc1 (stereo not drawn) [Compound E9, 1-(pyridin-4-ylmethyl)-N-(4-((tetrahydro-2H-pyran-2-yl)methyl)thiazol-2-yl)-1H-pyrrole-2-carboxamide] | 3.92 | 0.775 | 2.42 | 3.64 | 4.7 | 19.5 | 25.1 | 0.86 | > 25 | > 25 | 4.69 | 19
